From patent US20140058103A1, “Inhibitors of PI3K-Delta and Methods of Their Use and Manufacture” (Exelixis, Inc., priority 2010, published 2014)

Molecular target: PI3K delta (Homo sapiens, UniProt O00329)
Experiment: Luciferase-coupled chemiluminescence kinase assay (ATP consumption, KinaseGlo)
Format: biochemical
Experimental: Kinase activity and compound inhibition were investigated using one or more of the assay formats described below. The ATP concentrations used in the various assays were approximately equal to or less than the KM for each of the respective kinases. Dose-response experiments were performed using an intra-plate dilution scheme with 10 different inhibitor concentrations in a 384-well microtiter plate. IC50 values were calculated by nonlinear regression analysis using the four-parameter equation listed below:
Y=min+(max−min)/(1+(X/IC50)^N) Equation 1
Typically N should approximate unity. Curve fitting was performed using XLFit or ActivityBase.
Kinase activity is measured as the percent of ATP consumed following the kinase reaction using luciferase-luciferin-coupled chemiluminescence. […] Kinase reactions were initiated by combining test compounds, kinase, and ATP in a 20 μL volume (6 μL volume for 1536-well plate). The reaction mixture was incubated at ambient temperature for 2 h. Following the kinase reaction, a 20 μL (or […] for 1536-well plate) aliquot of KinaseGlo (Promega) was added and the chemiluminescence signal measured using an EnVision plate reader (Perkin Elmer).

PI3K delta, sequence (O00329 whole entry): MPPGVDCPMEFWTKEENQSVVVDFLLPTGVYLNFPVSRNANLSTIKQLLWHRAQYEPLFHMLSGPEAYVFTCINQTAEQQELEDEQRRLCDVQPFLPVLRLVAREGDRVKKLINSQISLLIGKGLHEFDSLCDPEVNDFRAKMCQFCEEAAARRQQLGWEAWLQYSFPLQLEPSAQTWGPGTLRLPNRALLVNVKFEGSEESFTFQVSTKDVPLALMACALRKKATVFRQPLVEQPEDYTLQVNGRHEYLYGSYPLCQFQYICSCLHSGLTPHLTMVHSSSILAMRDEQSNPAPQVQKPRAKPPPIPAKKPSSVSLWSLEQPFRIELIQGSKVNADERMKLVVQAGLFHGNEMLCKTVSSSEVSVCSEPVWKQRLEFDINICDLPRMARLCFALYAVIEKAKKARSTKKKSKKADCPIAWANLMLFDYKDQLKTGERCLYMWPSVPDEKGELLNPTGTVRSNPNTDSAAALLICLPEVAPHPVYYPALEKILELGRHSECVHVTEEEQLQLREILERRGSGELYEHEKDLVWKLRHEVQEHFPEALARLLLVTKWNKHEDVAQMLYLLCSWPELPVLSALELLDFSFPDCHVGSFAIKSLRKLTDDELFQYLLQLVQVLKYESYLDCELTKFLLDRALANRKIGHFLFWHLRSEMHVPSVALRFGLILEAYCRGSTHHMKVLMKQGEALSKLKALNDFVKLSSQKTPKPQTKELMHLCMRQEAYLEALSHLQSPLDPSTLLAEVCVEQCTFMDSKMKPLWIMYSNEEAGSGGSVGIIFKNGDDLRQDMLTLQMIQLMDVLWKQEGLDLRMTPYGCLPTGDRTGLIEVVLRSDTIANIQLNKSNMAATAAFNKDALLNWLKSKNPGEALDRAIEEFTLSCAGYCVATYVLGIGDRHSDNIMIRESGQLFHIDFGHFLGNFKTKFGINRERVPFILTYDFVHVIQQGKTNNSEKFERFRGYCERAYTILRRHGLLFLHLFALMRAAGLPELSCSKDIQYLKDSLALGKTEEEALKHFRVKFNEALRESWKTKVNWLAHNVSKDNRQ
PI3K delta, sequence (P27986 whole entry partner): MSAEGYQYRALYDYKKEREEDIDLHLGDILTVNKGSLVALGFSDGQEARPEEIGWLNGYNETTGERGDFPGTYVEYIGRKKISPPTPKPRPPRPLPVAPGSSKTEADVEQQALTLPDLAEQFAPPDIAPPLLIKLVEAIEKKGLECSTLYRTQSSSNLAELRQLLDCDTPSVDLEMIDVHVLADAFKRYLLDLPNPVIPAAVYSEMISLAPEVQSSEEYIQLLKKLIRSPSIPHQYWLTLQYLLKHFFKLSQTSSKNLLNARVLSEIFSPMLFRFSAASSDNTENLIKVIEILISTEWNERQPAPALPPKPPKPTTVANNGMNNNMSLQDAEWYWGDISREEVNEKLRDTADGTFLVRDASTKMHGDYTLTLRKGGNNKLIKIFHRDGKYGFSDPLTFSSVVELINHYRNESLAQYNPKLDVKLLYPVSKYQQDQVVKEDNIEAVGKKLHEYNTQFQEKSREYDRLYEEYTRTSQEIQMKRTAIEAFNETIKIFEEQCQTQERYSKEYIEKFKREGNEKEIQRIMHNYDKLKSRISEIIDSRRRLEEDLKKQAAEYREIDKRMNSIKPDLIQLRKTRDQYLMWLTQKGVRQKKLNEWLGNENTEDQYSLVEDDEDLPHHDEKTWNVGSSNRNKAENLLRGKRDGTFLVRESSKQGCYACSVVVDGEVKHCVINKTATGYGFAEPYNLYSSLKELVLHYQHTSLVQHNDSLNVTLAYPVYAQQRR

Structure (SMILES) | IC50 [nM]
CCn1cc(-c2nc3c(N4CCC(n5c(=O)[nH]c6c(F)cccc65)CC4)ncnc3n2C)cn1 [Compound 344, 1-{1-[8-(1-ethyl-1H-pyrazol-4-yl)-9-methyl-9H-purin-6-yl]piperidin-4-yl}-4-fluoro-1,3-dihydro-2H-benzimidazol-2-one] | < 50
CCOC(=O)c1nc2c(N3CCC(n4c(=O)[nH]c5ccccc54)CC3)ncnc2n1C [Compound 80, Ethyl 9-methyl-6-[4-(2-oxo-2,3-dihydro-1H-benzimidazol-1-yl)piperidin-1-yl]-9H-purine-8-carboxylate] | 500 to 1500
CCn1c(-c2nnc(C3CC3)o2)nc2c(N3CCC4(CC3)C(=O)Nc3ccccc34)ncnc21 [Compound 210, 1′-[8-(5-cyclopropyl-1,3,4-oxadiazol-2-yl)-9-ethyl-9H-purin-6-yl]spiro[indole-3,4′-piperidin]-2(1H)-one] | < 50
CCn1ncc(-c2nc3c(N4CCC(n5c(=O)[nH]c6ncccc65)CC4)ncnc3n2C)c1C [Compound 337, 1-{1-[8-(1-ethyl-5-methyl-1H-pyrazol-4-yl)-9-methyl-9H-purin-6-yl]piperidin-4-yl}-1,3-dihydro-2H-imidazo[4,5-b]pyridin-2-one] | < 50
CCNC(=O)c1nc2c(N3CCC4(CC3)C(=O)Nc3ccccc34)ncnc2n1C [Compound 32, N-ethyl-9-methyl-6-(2-oxo-1,2-dihydro-1H-spiro[indole-3,4′-piperidin]-1′-yl)-9H-purine-8-carboxamide] | 50 to 250
Cn1cc(-c2nc3c(N4CC[C@H](c5ccccc5)[C@@H](O)C4)ncnc3n2C)cn1 [Compound 346, (3R,4R)-1-[9-methyl-8-(1-methyl-1H-pyrazol-4-yl)-9H-purin-6-yl]-4-phenylpiperidin-3-ol] | 250 to 500
Cn1c(-c2nnc(C3CC3)o2)nc2c(N3CCC(n4c(=O)[nH]c5ccccc54)CC3)ncnc21 [Compound 125, 1-{1-[8-(5-cyclopropyl-1,3,4-oxadiazol-2-yl)-9-methyl-9H-purin-6-yl]piperidin-4-yl}-1,3-dihydro-2H-benzimidazol-2-one] | < 50
CNc1ncc(-c2nc3c(N4CCC(n5c(=O)[nH]c6ccccc65)CC4)ncnc3n2C)cn1 [Compound 309, 1-(1-{9-methyl-8-[2-(methylamino)pyrimidin-5-yl]-9H-purin-6-yl}piperidin-4-yl)-1,3-dihydro-2H-benzimidazol-2-one] | < 50
Cn1c(C(=O)N[C@H]2CC[C@H](O)CC2)nc2c(N3CCC(n4c(=O)[nH]c5ncccc54)CC3)ncnc21 [Compound 329, N-(trans-4-hydroxycyclohexyl)-9-methyl-6-[4-(2-oxo-2,3-dihydro-1H-imidazo[4,5-b]pyridin-1-yl)piperidin-1-yl]-9H-purine-8-carboxamide] | < 50
Cn1c(-c2cnn(CC3CCC3)c2)nc2c(N3CCC(n4c(=O)[nH]c5ccccc54)CC3)ncnc21 [Compound 231] | < 50
Cc1ccccc1CNC(=O)c1nc2c(N3CCC(n4c(=O)[nH]c5ccccc54)CC3)ncnc2n1C [Compound 57, 9-methyl-N-[(2-methylphenyl)methyl]-6-[4-(2-oxo-2,3-dihydro-1H-benzimidazol-1-yl)piperidin-1-yl]-9H-purine-8-carboxamide] | 250 to 500
CNc1ccc(-c2nc3c(N4CCC(n5c(=O)[nH]c6ccccc65)CC4)ncnc3n2C)cn1 [Compound 353, 1-(1-{9-methyl-8-[6-(methylamino)pyridin-3-yl]-9H-purin-6-yl}piperidin-4-yl)-1,3-dihydro-2H-benzimidazol-2-one] | < 50
Cc1[nH]ncc1-c1nc2c(N3CCC(n4c(=O)[nH]c5ccccc54)CC3)ncnc2n1C [Compound 242, 1-{1-[9-methyl-8-(5-methyl-1H-pyrazol-4-yl)-9H-purin-6-yl]piperidin-4-yl}-1,3-dihydro-2H-benzimidazol-2-one] | < 50
Cn1c(C(=O)NCC2CC2)nc2c(N3CCC(n4ccc5ccccc54)CC3)ncnc21 [Compound 121, N-(cyclopropylmethyl)-6-[4-(1H-indol-1-yl)piperidin-1-yl]-9-methyl-9H-purine-8-carboxamide] | 500 to 1500
Cn1c(C(=O)N2CC(F)(F)C2)nc2c(N3CCC(n4c(=O)[nH]c5ccccc54)CC3)ncnc21 [Compound 104, 1-(1-{8-[(3,3-difluoroazetidin-1-yl)carbonyl]-9-methyl-9H-purin-6-yl}piperidin-4-yl)-1,3-dihydro-2H-benzimidazol-2-one] | 50 to 250
Cn1c(C(=O)NCC2CC2)nc2c(N3CCC(N4C(=O)Cc5ccccc54)CC3)ncnc21 [Compound 117, N-(cyclopropylmethyl)-9-methyl-6-[4-(2-oxo-2,3-dihydro-1H-indol-1-yl)piperidin-1-yl]-9H-purine-8-carboxamide] | 50 to 250

Structure (SMILES) | IC50 [nM]
Cn1c(-n2cnc(C(F)(F)F)c2)nc2c(N3CCC(n4c(=O)[nH]c5ccccc54)CC3)ncnc21 [Compound 165, 1-(1-{9-methyl-8-[4-(trifluoromethyl)-1H-imidazol-1-yl]-9H-purin-6-yl}piperidin-4-yl)-1,3-dihydro-2H-benzimidazol-2-one] | 50 to 250
CCCCNC(=O)c1nc2c(N3CCC(n4c(=O)[nH]c5ccccc54)CC3)ncnc2n1C [Compound 45, N-butyl-9-methyl-6-[4-(2-oxo-2,3-dihydro-1H-benzimidazol-1-yl)piperidin-1-yl]-9H-purine-8-carboxamide] | < 50
Cn1c(-c2cccnc2)nc2c(N3CCC(n4c(=O)[nH]c5ccccc54)CC3)ncnc21 [Compound 268, 1-[1-(9-Methyl-8-pyridin-3-yl-9H-purin-6-yl)piperidin-4-yl]-1,3-dihydro-2H-benzimidazol-2-one] | < 50
Cc1ncc(-c2nc3c(N4CCC(n5c(=O)[nH]c6ccccc65)CC4)ncnc3n2C)n1C [Compound 333, 1-{1-[8-(1,2-dimethyl-1H-imidazol-5-yl)-9-methyl-9H-purin-6-yl]piperidin-4-yl)-1,3-dihydro-2H-benzimidazol-2-one] | < 50
CC(C)c1ccc2c(c1)C1(CCN(c3ncnc4c3nc(C(=O)NCC3CC3)n4C)CC1)C(=O)N2 [Compound 136, N-(cyclopropylmethyl)-9-methyl-6-[5-(1-methylethyl)-2-oxo-1,2-dihydro-1′H-spiro[indole-3,4′-piperidin]-1′-yl]-9H-purine-8-carboxamide] | 500 to 1500
CCn1c(-c2cccnc2)nc2c(N3CCC4(CC3)C(=O)Nc3ccccc34)ncnc21 [Compound 291, 1′-(9-ethyl-8-pyridin-3-yl-9H-purin-6-yl)spiro[indole-3,4′-piperidin]-2(1H)-one] | < 50
CCn1c(C(=O)NC2COC2)nc2c(N3CCC4(CC3)C(=O)Nc3ccccc34)ncnc21 [Compound 226, 9-ethyl-N-oxetan-3-yl-6-(2-oxo-1,2-dihydro-1′H-spiro[indole-3,4′-piperidin]-1′-yl)-9H-purine-8-carboxamide] | < 50
CCCc1nnc(-c2nc3c(N4CCC(n5c(=O)[nH]c6ccccc65)CC4)ncnc3n2C)o1 [Compound 123, 1-{1-[9-methyl-8-(5-propyl-1,3,4-oxadiazol-2-yl)-9H-purin-6-yl]piperidin-4-yl}-1,3-dihydro-2H-benzimidazol-2-one] | < 50
CCCCNC(=O)c1nc2c(N3CCC(n4c(=O)[nH]c5ccccc54)CC3)ncnc2n1CC [Compound 157, N-butyl-9-ethyl-6-[4-(2-oxo-2,3-dihydro-1H-benzimidazol-1-yl)piperidin-1-yl]-9H-purine-8-carboxamide] | 50 to 250
Cc1ccc(-c2nc3c(N4CCC(n5c(=O)[nH]c6ccccc65)CC4)ncnc3n2C)o1 [Compound 115, 1-{1-[9-methyl-8-(5-methylfuran-2-yl)-9H-purin-6-yl]piperidin-4-yl}-1,3-dihydro-2H-benzimidazol-2-one] | 250 to 500
COc1ncc(-c2nc3c(N4CCC(n5c(=O)[nH]c6ccccc65)CC4)ncnc3n2C)cn1 [Compound 310, 1-(1-{9-methyl-8-[2-(methyloxy)pyrimidin-5-yl]-9H-purin-6-yl}piperidin-4-yl)-1,3-dihydro-2H-benzimidazol-2-one] | < 50
Cn1cc(-c2nc3c(N4CCC(CN)(c5ccccc5)CC4)ncnc3n2C)cn1 [Compound 1, 1-{1-[9-methyl-8-(1-methyl-1H-pyrazol-4-yl)-9H-purin-6-yl]-4-phenylpiperidin-4-yl}methanamine] | 500 to 1500
Cn1cc(-c2nc3c(N4CCN(c5ccccc5S(C)(=O)=O)CC4)ncnc3n2C)cn1 [Compound 350, 9-methyl-8-(1-methyl-1H-pyrazol-4-yl)-6-{4-[2-(methylsulfonyl)phenyl]piper-azin-1-yl}-9H-purine] | 500 to 1500
Cn1c(-c2ccncn2)nc2c(N3CCC(n4c(=O)[nH]c5ccccc54)CC3)ncnc21 [Compound 298, 1-[1-(9-methyl-8-pyrimidin-4-yl-9H-purin-6-yl)piperidin-4-yl]-1,3-dihydro-2H-benzimidazol-2-one] | 250 to 500
Cn1c(-c2ccc(N)nc2)nc2c(N3CCC(n4c(=O)[nH]c5ncccc54)CC3)ncnc21 [Compound 343, 1-{1-[8-(6-aminopyridin-3-yl)-9-methyl-9H-purin-6-yl]piperidin-4-yl}-1,3-dihydro-2H-imidazo[4,5-b]pyridin-2-one] | < 50
Cn1c(-c2ccnnc2)nc2c(N3CCC4(CC3)C(=O)Nc3ccccc34)ncnc21 [Compound 313, 1′-(9-methyl-8-pyridazin-4-yl-9H-purin-6-yl)spiro[indole-3,4′-piperidin]-2(1H)-one] | 50 to 250
